Laboratory results published in patent US8394828B2 (Janssen Pharmaceutica, NV, priority 2003, dated 2013).

Legend:
[1] = tested on: carrageenan paw-induced thermal hyperalgesia; assay: Carrageenan Paw-induced Thermal Hyperalgesia; format: in vivo, mice or rats; conditions: 30 mg/kg po; read-out: % Recovery
[2] = tested on: Dextran Sulfate Sodium Induced Colitis; assay: Mouse Colitis Model (Dextran Sulfate Sodium Induced Colitis); format: in vivo, mice; conditions: 5% DSS in drinking water, twice daily, orally, 0.05-30 mg/kg
Source text: These are similar to what occurs in human colitis.
Balb/c female mice are provided with a solution of tap water containing 5% DSS (ICN chemicals) ad libitum over a 7-day period. […] This material may be administered orally or intraperitoneally, once or twice daily. At the end of this period, the animals are euthanized and their colons are collected for further analysis. Among the parameters analyzed are the length of the colon starting from 1 cm above the anus to the top of the cecum, the weight of the colon, the consistency of any stools found within the colon, and the gross macroscopic appearance of the colon. The distal colon between the 1st and the 4th centimeter are dissected into two halves. One half is placed in 10% neutral buffered formalin for later histological analysis if desired. The other half is cleaned in a bath of physiological buffer, patted dry, weighed and then placed in a solution of 0.5% hexadecyltrimethylammonium bromide (HTAB; Sigma) dissolved in 50 mM phosphate buffer, adjusted to pH 5.4. The tissue sample thus treated is then frozen at −80° C.
For the following parameters, colon length, colon weight, stool consistency and appearance and macroscopic damage a scoring system is used to describe the changes. The 4 scores for each animal are added to provide a Total Score. Thus,
Stool Score: • 0=normal (well-formed fecal pellets); • 1=loosely-shaped moist pellets; • 2=amorphous, moist, sticky pellets; • 3=bloody diarrhea. Presence of blood in stool: add 1 to scores <3
Colon Damage Score: • 0=no inflammation • 1=reddening mild inflammation; • 2=moderate inflammation or more widely distributed; • 3=severe inflammation and/or extensively distributed
Colon Weight Score: • 0=<5% weight loss; • 1=5-14% weight loss; • 2=15-24% weight loss; • 3=25-35% weight loss; 4=>35% weight loss.
Colon Length Score: • 0=<5% shortening; • 1=5-14% shortening; • 2=15-24% shortening; • 3=25-35% shortening; • 4=>35% shortening.
Colon weight changes and colon length changes are also directly measured and the net changes compared to DSS and untreated controls are used to calculate a % inhibition of colon weight loss or colon shrinkage induced by DSS treatment.
The tissue sample previously frozen at −80° C. in 0.5% solution of HTAB is thawed, homogenized twice for 15 seconds using a Brinkman Polytron homogenizer fitted with a TS10 generator. The crude homogenate is next sonicated at 60 watts for two 5-second bursts and then centrifuged for 20 minutes at 15000×g. The supernatant of this homogenate is collected, aliquoted and frozen at −70° C. for future analysis for myeloperoxidase analysis (MPO). MPO is an intracellular enzyme found in neutrophils and can be considered a surrogate marker for neutrophil infiltration into tissues, including those afflicted with colitis (Diaz-Granados, et al., 2000).
Statistical analyses were performed by ANOVA using Multiple Comparisons Test and Tukey's test.

[3] = tested on: rings of bronchial tissue obtained from male guinea pigs; assay: Guinea Pig Bronchial Ring Constriction; conditions: tissues exposed to compound for 30 min; capsaicin 10 nM-10 μM; FIG. 7
Experimental: Two mm rings of bronchial tissue obtained from male guinea pigs were suspended in normal Krebs solution between two wire hooks under an initial loading tension of 1 gram. The saline was maintained in a 5% CO2 and 95% O2 atmosphere at 37° C. in the presence of indomethacin (5 μM). A sub-maximal dose of 5-methylfurmethide (5 Mef, 1 μM) was added to each tissue to determine responsiveness using an isometric force transducer. After washout, tissues were exposed to compounds or vehicle for 30 min and treated with thiorphan (10 μM, 5% Na2CO3). A concentration-response curve was then constructed using capsaicin (10 nM-10 μM) increasing in 0.5 log unit increments. The dose response curve was calculated as % max of the 5-Mef response and estimated pA2 were determined.

[4] = tested on: mice; assay: Hot-plate test, reference compounds; format: in vivo; conditions: i.p., pre-treat time 30 min
Source text: The hot-plate test originally described by Eddy and Leimbach (J. Pharmacol. Exp. Ther. 107:385-393, 1953) with minor modifications (e.g., O'Callaghan and Holtzman, J. Pharmacol. Exp. Ther. 192: 497-505, 1975) is used to ascertain the analgesic potential of compounds.
Generally, male, Swiss-derived albino mice (CRS-CD1®; Charles River Laboratories), weighing 18-24 g at the time of testing or male Sprague Dawley rats (CD1, Charles River Laboratories) 100-300 g are used. The animals are weighed, placed in a plastic box with wood chips (typically 10 mice or 4-6 rats per box) and allowed to acclimate before testing. […]
An animal is placed on the heated surface and the time interval between placement and a shaking, licking or tucking of the hindpaw is recorded as the control reaction time (RTC). […] A percent maximum possible effect (% MPE) can also be calculated from the following formula: % MPE=100×(RTdc−RTc)/(CO−RTc), where RTdc and RTc are drug-treated and control reaction times, respectively, and CO is cut-off time.
As a screen, the largest possible nontoxic dose of test drug is administered. If activity is detected, and if appropriate, generally 3-5 doses (usually 10 mice or 6-8 rats per dose) are used to construct a dose response curve or time course. […] The ED50 value is determined at the time of peak effect.

SMILES: CN(c1ccc(C(=O)Nc2cnc3ccccc3c2)cc1)C1CCCCC1 [Example 102, 4-(Cyclohexyl-methyl-amino)-N-quinolin-3-yl-benzamide]
- inhibition in vivo at 30 mg/kg [1]: 55%
- inhibition of colon weight loss ([2]; FIG. 1): significant (p<0.05) inhibition
- inhibition of colon shrinkage ([2]; FIG. 2): significant (p<0.05) inhibition
- Colon Damage Score ([2]; FIG. 3): diminished (p>0.05), but not statistically significantly
- Stool Score ([2]; FIG. 4): decreased (p>0.05), but not statistically significantly
- inhibition of Total Score ([2]; FIG. 5): significant (p<0.05) inhibition
- Myleoperoxidase (MPO) inhibition ([2]; colon tissue, FIG. 6): inhibition (p>0.05)

SMILES: O=C(Nc1cnc2ccccc2c1)c1ccc(N2CC3CCCC(C3)C2)cc1 [Example 178, 4-(3-Aza-bicyclo[3.3.1]non-3-yl)-N-quinolin-3-yl-benzamide]
- shift of the capsaicin dose-response curve [3]: shifted the capsaicin dose-response curve to the right

SMILES: Cc1cc(CC(=O)O)n(C)c1C(=O)c1ccc(Cl)cc1 [Zomepirac]
- ED50 (95% C.I.) [4]: inactive
